Data as given in ChEMBL document CHEMBL1132901, “Synthesis and structure-activity relationships of quaternary ammonium cephalosporins with 3-pyrazolylpyridinium derivatives” (2000).
Converted amounts (≈) assume the structure as drawn.

What follows are molecules tested on Escherichia coli (assay: In vitro antimicrobial activity against Escherichia coli TEM). Conditions: not given.
Format: functional

| SMILES | MIC |
| --- | --- |
| CO/N=C(/C(=O)N[C@@H]1C(=O)N2C(C(=O)[O-])=C(C[n+]3cccc(-c4cc(C(N)=O)[nH]n4)c3)CS[C@H]12)c1csc(N)n1 | 0.195 µg/mL (≈ 0.334 µM) |

Each molecule was assayed on Pseudomonas aeruginosa (assay: In vitro antimicrobial activity against Pseudomonas aeruginosa 1592 E). Conditions: not given.
Format: functional

| SMILES | MIC |
| --- | --- |
| CO/N=C(/C(=O)N[C@@H]1C(=O)N2C(C(=O)[O-])=C(C[n+]3cccc(-c4cc(C(N)=O)[nH]n4)c3)CS[C@H]12)c1csc(N)n1 | 3.12 µg/mL (≈ 5.35 µM) |

The molecules below were run on Enterobacter cloacae (assay: In vitro antimicrobial activity against Enterobacter cloacae P99). Conditions: not given.
Format: functional

| SMILES | MIC |
| --- | --- |
| CO/N=C(/C(=O)N[C@@H]1C(=O)N2C(C(=O)[O-])=C(C[n+]3cccc(-c4cc(C(N)=O)[nH]n4)c3)CS[C@H]12)c1csc(N)n1 | 50 µg/mL (≈ 85.7 µM) |

These molecules were tested on Staphylococcus aureus (assay: In vitro antimicrobial activity against Methicillin resistant Staphylococcus aureus (MRSA)). Conditions: not given.
Format: functional

| SMILES | MIC |
| --- | --- |
| CO/N=C(/C(=O)N[C@@H]1C(=O)N2C(C(=O)[O-])=C(C[n+]3cccc(-c4cc(C(N)=O)[nH]n4)c3)CS[C@H]12)c1csc(N)n1 | 50 µg/mL (≈ 85.7 µM) |

Each molecule was assayed on Pseudomonas aeruginosa (assay: In vitro antimicrobial activity against Pseudomonas aeruginosa 9027). Conditions: not given.
Format: functional

| SMILES | MIC |
| --- | --- |
| CO/N=C(/C(=O)N[C@@H]1C(=O)N2C(C(=O)[O-])=C(C[n+]3cccc(-c4cc(C(N)=O)[nH]n4)c3)CS[C@H]12)c1csc(N)n1 | 6.25 µg/mL (≈ 10.7 µM) |

The molecules below were run on Pseudomonas aeruginosa (assay: In vitro antimicrobial activity against Pseudomonas aeruginosa 1771). Conditions: not given.
Format: functional

| SMILES | MIC |
| --- | --- |
| CO/N=C(/C(=O)N[C@@H]1C(=O)N2C(C(=O)[O-])=C(C[n+]3cccc(-c4cc(C(N)=O)[nH]n4)c3)CS[C@H]12)c1csc(N)n1 | 1.56 µg/mL (≈ 2.68 µM) |

What follows are molecules tested on Staphylococcus aureus (assay: In vitro antimicrobial activity against Staphylococcus aureus 503). Conditions: not given.
Format: functional

| SMILES | MIC |
| --- | --- |
| CO/N=C(/C(=O)N[C@@H]1C(=O)N2C(C(=O)[O-])=C(C[n+]3cccc(-c4cc(C(N)=O)[nH]n4)c3)CS[C@H]12)c1csc(N)n1 | 0.391 µg/mL (≈ 0.67 µM) |

The molecules below were run on Pseudomonas aeruginosa (assay: In vitro antimicrobial activity against Pseudomonas aeruginosa 1771 M). Conditions: not given.
Format: functional

| SMILES | MIC |
| --- | --- |
| CO/N=C(/C(=O)N[C@@H]1C(=O)N2C(C(=O)[O-])=C(C[n+]3cccc(-c4cc(C(N)=O)[nH]n4)c3)CS[C@H]12)c1csc(N)n1 | 0.781 µg/mL (≈ 1.34 µM) |

Each molecule was assayed on Streptococcus pyogenes (assay: In vitro antimicrobial activity against Streptococcus pyogenes 77A). Conditions: not given.
Format: functional

| SMILES | MIC |
| --- | --- |
| CO/N=C(/C(=O)N[C@@H]1C(=O)N2C(C(=O)[O-])=C(C[n+]3cccc(-c4cc(C(N)=O)[nH]n4)c3)CS[C@H]12)c1csc(N)n1 | 0.013 µg/mL (≈ 0.0223 µM) |

The molecules below were run on Staphylococcus aureus (assay: In vitro antimicrobial activity against Staphylococcus aureus 285). Conditions: not given.
Format: functional

| SMILES | MIC |
| --- | --- |
| CO/N=C(/C(=O)N[C@@H]1C(=O)N2C(C(=O)[O-])=C(C[n+]3cccc(-c4cc(C(N)=O)[nH]n4)c3)CS[C@H]12)c1csc(N)n1 | 1.56 µg/mL (≈ 2.68 µM) |

These molecules were tested on Streptococcus pyogenes (assay: In vitro antimicrobial activity against Streptococcus pyogenes A 308). Conditions: not given.
Format: functional

| SMILES | MIC |
| --- | --- |
| CO/N=C(/C(=O)N[C@@H]1C(=O)N2C(C(=O)[O-])=C(C[n+]3cccc(-c4cc(C(N)=O)[nH]n4)c3)CS[C@H]12)c1csc(N)n1 | 0.013 µg/mL (≈ 0.0223 µM) |

These molecules were tested on Escherichia coli (assay: In vitro antimicrobial activity against Escherichia coli DC 0). Conditions: not given.
Format: functional

| SMILES | MIC |
| --- | --- |
| CO/N=C(/C(=O)N[C@@H]1C(=O)N2C(C(=O)[O-])=C(C[n+]3cccc(-c4cc(C(N)=O)[nH]n4)c3)CS[C@H]12)c1csc(N)n1 | 0.025 µg/mL (≈ 0.0428 µM) |

What follows are molecules tested on Escherichia coli (assay: In vitro antimicrobial activity against Escherichia coli 1507E). Conditions: not given.
Format: functional

| SMILES | MIC |
| --- | --- |
| CO/N=C(/C(=O)N[C@@H]1C(=O)N2C(C(=O)[O-])=C(C[n+]3cccc(-c4cc(C(N)=O)[nH]n4)c3)CS[C@H]12)c1csc(N)n1 | 0.098 µg/mL (≈ 0.168 µM) |

The molecules below were run on Escherichia coli (assay: In vitro antimicrobial activity against Escherichia coli DC 2). Conditions: not given.
Format: functional

| SMILES | MIC |
| --- | --- |
| CO/N=C(/C(=O)N[C@@H]1C(=O)N2C(C(=O)[O-])=C(C[n+]3cccc(-c4cc(C(N)=O)[nH]n4)c3)CS[C@H]12)c1csc(N)n1 | 0.025 µg/mL (≈ 0.0428 µM) |

The molecules below were run on Escherichia coli (assay: In vitro antimicrobial activity against Escherichia coli 055). Conditions: not given.
Format: functional

| SMILES | MIC |
| --- | --- |
| CO/N=C(/C(=O)N[C@@H]1C(=O)N2C(C(=O)[O-])=C(C[n+]3cccc(-c4cc(C(N)=O)[nH]n4)c3)CS[C@H]12)c1csc(N)n1 | 0.025 µg/mL (≈ 0.0428 µM) |

The molecules below were run on Klebsiella aerogenes (assay: In vitro antimicrobial activity against Klebsiella aerogenes 1522 E). Conditions: not given.
Format: functional

| SMILES | MIC |
| --- | --- |
| CO/N=C(/C(=O)N[C@@H]1C(=O)N2C(C(=O)[O-])=C(C[n+]3cccc(-c4cc(C(N)=O)[nH]n4)c3)CS[C@H]12)c1csc(N)n1 | 0.049 µg/mL (≈ 0.084 µM) |

These molecules were tested on Streptococcus pyogenes (assay: In vitro antimicrobial activity against Streptococcus pyogenes SG 511). Conditions: not given.
Format: functional

| SMILES | MIC |
| --- | --- |
| CO/N=C(/C(=O)N[C@@H]1C(=O)N2C(C(=O)[O-])=C(C[n+]3cccc(-c4cc(C(N)=O)[nH]n4)c3)CS[C@H]12)c1csc(N)n1 | 0.781 µg/mL (≈ 1.34 µM) |

Each molecule was assayed on Salmonella typhimurium (assay: In vitro antimicrobial activity against Salmonella Typhimurium). Conditions: Salmonella enterica.
Format: functional, Salmonella enterica subsp. enterica serovar Typhimurium

| SMILES | MIC |
| --- | --- |
| CO/N=C(/C(=O)N[C@@H]1C(=O)N2C(C(=O)[O-])=C(C[n+]3cccc(-c4cc(C(N)=O)[nH]n4)c3)CS[C@H]12)c1csc(N)n1 | 0.049 µg/mL (≈ 0.084 µM) |

What follows are molecules tested on Enterococcus faecium (assay: In vitro antimicrobial activity against Streptococcus faecium MD 8b). Conditions: not given.
Format: functional

| SMILES | MIC |
| --- | --- |
| CO/N=C(/C(=O)N[C@@H]1C(=O)N2C(C(=O)[O-])=C(C[n+]3cccc(-c4cc(C(N)=O)[nH]n4)c3)CS[C@H]12)c1csc(N)n1 | 3.12 µg/mL (≈ 5.35 µM) |

Each molecule was assayed on Klebsiella oxytoca (assay: In vitro antimicrobial activity against Klebsiella oxytoca 1082). Conditions: not given.
Format: functional

| SMILES | MIC |
| --- | --- |
| CO/N=C(/C(=O)N[C@@H]1C(=O)N2C(C(=O)[O-])=C(C[n+]3cccc(-c4cc(C(N)=O)[nH]n4)c3)CS[C@H]12)c1csc(N)n1 | 1.56 µg/mL (≈ 2.68 µM) |

What follows are molecules tested on Enterobacter cloacae (assay: In vitro antimicrobial activity against Enterobacter 1321 E). Conditions: not given.
Format: functional

| SMILES | MIC |
| --- | --- |
| CO/N=C(/C(=O)N[C@@H]1C(=O)N2C(C(=O)[O-])=C(C[n+]3cccc(-c4cc(C(N)=O)[nH]n4)c3)CS[C@H]12)c1csc(N)n1 | 0.025 µg/mL (≈ 0.0428 µM) |
